Measured values: PubChem BioAssay (NCI)
Values joined by “and” are separate entries in the source; they are usually repeats but may differ in a detail not shown here. Identical values can stand only once.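 Step 1: Grow cells in 96-well plates. Step 2: Expose to compound for 48 hours at 5 concentrations. Step 3: Interpolate endpoints linearly; if unreached, use highest concentration. GI50: concentration for 50% inhibition of growth. TGI denotes the concentration required for complete inhibition of growth.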

Legend:
Test in all cases: growth of human tumour cells (NCI), 48 h
HL-60(TB) leukemia = tested on: HL-60(TB) leukemia
M14 melanoma = tested on: M14 melanoma
MOLT-4 leukemia = tested on: MOLT-4 leukemia
OVCAR-3 ovarian = tested on: OVCAR-3 ovarian
OVCAR-4 ovarian = tested on: OVCAR-4 ovarian
OVCAR-5 ovarian = tested on: OVCAR-5 ovarian
SN12C renal = tested on: SN12C renal
SNB-19 CNS = tested on: SNB-19 CNS
UACC-257 melanoma = tested on: UACC-257 melanoma
UO-31 renal = tested on: UO-31 renal

SMILES	TGI (HL-60(TB) leukemia)	TGI (M14 melanoma)	TGI (MOLT-4 leukemia)	TGI (OVCAR-3 ovarian)	TGI (OVCAR-4 ovarian)	TGI (OVCAR-5 ovarian)	TGI (SN12C renal)	TGI (SNB-19 CNS)	TGI (UACC-257 melanoma)	TGI (UO-31 renal)	GI50 (HL-60(TB) leukemia)	GI50 (M14 melanoma)	GI50 (MOLT-4 leukemia)	GI50 (OVCAR-3 ovarian)	GI50 (OVCAR-4 ovarian)	GI50 (OVCAR-5 ovarian)	GI50 (SN12C renal)	GI50 (SNB-19 CNS)	GI50 (UACC-257 melanoma)	GI50 (UO-31 renal)
O=C(CCC(=O)Nc1ccccc1C(F)(F)F)N/N=C1\C(=N\NC(=O)CCC(=O)Nc2ccccc2C(F)(F)F)C(c2ccc3c(c2)OCO3)Oc2ccccc21 (stereo not drawn)	> 100 µM	> 100 µM	> 100 µM	> 100 µM	> 85.4 µM	> 100 µM	> 100 µM	> 100 µM	> 100 µM	> 100 µM										
O=CC(OC(=O)c1ccccc1)C(OC(=O)c1ccccc1)C(COC(c1ccccc1)(c1ccccc1)c1ccccc1)OC(=O)c1ccccc1 (stereo not drawn)	20.7 µM	30.3 µM	11.7 µM	24.1 µM	47.1 µM	43.9 µM	47.9 µM	28.6 µM	34.4 µM	31.2 µM	3250 nM	14 µM	2.64 µM	11 µM	17.5 µM	21.6 µM	17.4 µM	15300 nM	13.9 µM	10.8 µM
Cc1ccccc1NC(=O)CC1C(=O)Nc2ccccc2S1=O (stereo not drawn)	> 100 µM	> 100 µM	> 100 µM	> 100 µM	> 100 µM	> 100 µM	> 100 µM	> 100 µM	> 100 µM	> 100 µM										
O=C1c2c(O)cccc2C(C(=O)CCCCCC(=O)C2c3cccc(O)c3C(=O)c3c(O)cccc32)c2cccc(O)c21	5.35 µM and 4.77 µM	2.5 µM and 16.8 µM	25 µM and 27.6 µM	3.19 µM and 5.98 µM	4.61 µM and 11 µM	7.43 µM and 14.4 µM	9.71 µM and 30 µM	3.9 µM and 6.97 µM	2.73 µM and 10.6 µM	3.88 µM and 14.5 µM		7.79 µM	10.8 µM	1.73 µM	5.17 µM	6.96 µM	10.6 µM	2050 nM	3.9 µM	7.85 µM
Cc1cc(=O)oc2c(C3=NN(C=O)C(c4ccccc4)C3)c(O)ccc12 (stereo not drawn)	> 100 µM	> 95.9 µM	> 100 µM	> 100 µM	> 100 µM	> 100 µM	> 100 µM	> 91.2 µM	> 100 µM	> 100 µM										
CCc1cccc(C(C)C)c1NC(=O)CC1Sc2ccccc2NC1=O (stereo not drawn)	50 µM	> 100 µM	92.1 µM	> 100 µM	> 100 µM	> 100 µM	> 100 µM	> 100 µM	> 100 µM	> 100 µM										
NC(Cc1ccccc1)C(=O)OCN1C(=O)C2C3C=CC(C2C1=O)C1C2C(=O)N(COC(=O)C(N)Cc4ccccc4)C(=O)C2C31 (stereo not drawn)	43.5 µM and > 100 µM	35 µM and 33.9 µM	52 µM and 42.9 µM	87 µM and 67.7 µM	34 µM and 44.5 µM	> 100 µM	52.7 µM and 43.9 µM	> 100 µM	67.1 µM and 50.1 µM				24.3 µM and 12 µM							40.6 µM
Nc1n[n+]([O-])c2cc([N+](=O)[O-])ccc2[n+]1[O-]	7.47 µM	20.4 µM	4.16 µM	15.2 µM	10.2 µM	42.2 µM	18.1 µM	31.1 µM	27.1 µM	23.7 µM										
C=C1CCC2CC1C(C(=O)c1c[nH]c3ccccc13)=NC2(C)C (stereo not drawn)	> 100 µM	> 100 µM	> 100 µM	> 100 µM	> 100 µM	> 100 µM	> 100 µM	> 100 µM	> 100 µM	> 100 µM										
COc1cc(/C=C/C(=O)c2cccc3ccccc23)cc(OC)c1OC	4.31 µM	19.1 µM	34.4 µM	25.7 µM	19.1 µM	27.5 µM	12.5 µM	27.8 µM	19.7 µM	30.5 µM										
COC(=O)C(C(=O)C(=O)Nc1ccc(C)cc1)c1nc2ccc([N+](=O)[O-])cc2[nH]c1=O (stereo not drawn)	> 100 µM	> 100 µM	> 100 µM	> 100 µM	> 100 µM	> 100 µM	> 100 µM	> 100 µM	> 100 µM	> 100 µM										
COc1ccc(C(c2ccccc2C(=O)O)c2ccc(OC)c3ccccc23)c2ccccc12	38.1 µM	33 µM	66 µM	26.6 µM	25.6 µM	31.4 µM	29.7 µM	25.4 µM	24.5 µM	19.4 µM										
c1ccc2c(c1)[nH]c1cnc3c4ncccc4[nH]c3c12	> 100 µM	> 100 µM	97.6 µM	> 100 µM	> 100 µM	> 100 µM	> 100 µM	> 100 µM	> 100 µM	> 100 µM										
O=C(CCc1nc(=S)[nH][nH]1)Nc1cc(Cl)ccc1Cl	> 100 µM	> 100 µM	> 100 µM	> 100 µM	> 100 µM	> 100 µM	> 100 µM	> 100 µM	> 100 µM	> 100 µM										
Cc1nnc(C[C@@H]2C=C(c3ccc(Cl)cc3)c3ccccc3-n3c(C)nnc32)o1	35.5 µM	56.7 µM	> 100 µM	19.8 µM	> 100 µM	> 100 µM	> 100 µM	> 100 µM	> 100 µM	44.4 µM	250 nM	0.529 µM	8.35 µM	1.08 µM	1.29 µM	4.7 µM	12 µM	5530 nM	2.43 µM	0.0739 µM
CC1=C(C(=O)Nc2cccc(Cl)c2)C(c2ccccc2O)C(C(=O)Nc2cccc(Cl)c2)=C(C)N1	48.1 µM	31.7 µM	59.2 µM	40 µM	35.6 µM	38.6 µM	39 µM	52.1 µM	36.6 µM	31.3 µM										
Cc1cccc(C(C)(C)C)c1NC(=O)C(C#N)C1=C(Cl)C(=O)c2ccccc2C1=O (stereo not drawn)	26 µM	32.5 µM	22.6 µM	31.4 µM	28.9 µM	32 µM	31.5 µM	39.1 µM	30.3 µM	27.9 µM										
Cc1noc2cccc(O)c12	> 100 µM	> 100 µM	> 100 µM	> 100 µM	> 100 µM	> 100 µM	> 100 µM	> 100 µM	> 100 µM	> 100 µM										
COc1cccc(/C=N/[N-]C(=O)c2ccncc2)c1[O-].[Mn+2].[OH3+]	4.19 µM	52.4 µM	> 100 µM	> 100 µM	> 100 µM	88.9 µM	> 100 µM	> 100 µM	96.2 µM	26.5 µM	1450 nM	7.96 µM	3.24 µM	3.51 µM	22.1 µM	37 µM	17.8 µM	42000 nM	5.05 µM	3.83 µM
COC(=O)C(=O)C(CC(=O)Nc1cc(Cl)ccc1Cl)C(=O)OC (stereo not drawn)	> 100 µM	> 100 µM	> 100 µM	> 100 µM	> 100 µM	> 100 µM	> 100 µM	> 100 µM	> 100 µM	> 100 µM										
CC(=O)N[C@H](C)[C@@H](O)[C@@H](C)[C@@H]1OC(=O)/C=C/C=C(C)\C=C\[C@]2(C)C[C@@H](NS(C)(=O)=O)C=C[C@@H]2/C=C(C)/C=C/[C@H]1C	> 43.5 µM		> 43.5 µM	> 43.5 µM	> 43.5 µM	> 43.5 µM	> 43.5 µM	> 43.5 µM	> 43.5 µM	> 43.5 µM	5.79 nM and 12.4 nM	0.00309 µM	> 43.5 µM		25.2 µM	> 43.5 µM	0.00723 µM and 0.0129 µM	39 nM and 22.8 nM	0.0227 µM and 0.00967 µM	0.00495 µM and 0.00725 µM
NC(N)=NN=c1c(=O)c2ccccc2c1=O	48.6 µM	3.46 µM	3.82 µM	26.4 µM	25.2 µM	32.5 µM	3.83 µM	3.25 µM	28.9 µM	20.1 µM	21500 nM	2 µM	1.46 µM	13 µM	12.6 µM	17.5 µM	1.81 µM	1720 nM	15.1 µM	6.81 µM
O=C1OC(CC(=O)c2ccc(F)cc2)C(Cl)=C1Cl (stereo not drawn)	62 µM	56.6 µM	> 100 µM	38.7 µM	43.5 µM	44.9 µM	35.3 µM	47 µM	33.6 µM	38.5 µM										
